According to ChEMBL document CHEMBL3046161, “Synthesis of potential antitubercular and antimicrobial s-triazine-based scaffolds via Suzuki cross-coupling reaction” (2013):
In brackets after ≈: the same amount, converted by molar mass.

How the values were obtained:
Type in all cases: functional
Salmonella typhi [1] = experiment: Antibacterial activity against Salmonella enterica subsp. enterica serovar Typhi MTCC 733 assessed as growth inhibition at 3.12 to 50 ug/mL after 24 hr by agar disk diffusion method
Klebsiella pneumoniae [2] = experiment: Antibacterial activity against Klebsiella pneumoniae MTCC 109 assessed as growth inhibition at 3.12 to 50 ug/mL after 24 hr by agar disk diffusion method
Klebsiella pneumoniae [3] = experiment: Antibacterial activity against Klebsiella pneumoniae MTCC 109 assessed as growth inhibition after 24 hr by agar streak dilution method; settings: MTCC 109, 24 h
Salmonella typhi [4] = experiment: Antibacterial activity against Salmonella enterica subsp. enterica serovar Typhi MTCC 733 assessed as growth inhibition after 24 hr by agar streak dilution method; settings: MTCC 733, 24 h
Pseudomonas aeruginosa [5] = experiment: Antibacterial activity against Pseudomonas aeruginosa MTCC 741 assessed as growth inhibition after 24 hr by agar streak dilution method; settings: MTCC 741, 24 h
Escherichia coli [6] = experiment: Antibacterial activity against Escherichia coli MTCC 739 assessed as growth inhibition after 24 hr by agar streak dilution method; settings: MTCC 739, 24 h
Bacillus cereus [7] = experiment: Antibacterial activity against Bacillus cereus MTCC 430 assessed as growth inhibition after 24 hr by agar streak dilution method; settings: MTCC 430, 24 h
Staphylococcus aureus [8] = experiment: Antibacterial activity against Staphylococcus aureus MTCC 96 assessed as growth inhibition after 24 hr by agar streak dilution method; settings: MTCC 96, 24 h
[9] = test system: Mycobacterium tuberculosis; experiment: Antimycobacterial activity against Mycobacterium tuberculosis H37Rv assessed as growth inhibition at MIC after 12 to 28 days by Lowenstein and Jensen agar dilution method
[10] = test system: Mycobacterium tuberculosis; experiment: Antimycobacterial activity against Mycobacterium tuberculosis H37Rv assessed as growth inhibition after 12 to 28 days by Lowenstein and Jensen agar dilution method
[11] = test system: Mycobacterium tuberculosis; experiment: Antimycobacterial activity against Mycobacterium tuberculosis H37Rv assessed as growth inhibition measured within 10 days by BACTEC MGIT method; settings: 240 h
Candida albicans [12] = experiment: Antifungal activity against Candida albicans MTCC 183 assessed as growth inhibition at 3.12 to 50 ug/mL after 24 hr by agar disk diffusion method
Aspergillus clavatus [13] = experiment: Antifungal activity against Aspergillus clavatus MTCC 1323 assessed as growth inhibition at 3.12 to 50 ug/mL after 24 hr by agar disk diffusion method
Aspergillus fumigatus [14] = experiment: Antifungal activity against Aspergillus fumigatus MTCC 343 assessed as growth inhibition at 3.12 to 50 ug/mL after 24 hr by agar disk diffusion method
Aspergillus niger [15] = experiment: Antifungal activity against Aspergillus niger MTCC 282 assessed as growth inhibition at 3.12 to 50 ug/mL after 24 hr by agar disk diffusion method
Candida albicans [16] = experiment: Antifungal activity against Candida albicans MTCC 183 assessed as growth inhibition after 48 hr by agar streak dilution method; settings: MTCC 183, 48 h
Aspergillus clavatus [17] = experiment: Antifungal activity against Aspergillus clavatus MTCC 1323 assessed as growth inhibition after 48 hr by agar streak dilution method; settings: MTCC 1323, 48 h
Aspergillus fumigatus [18] = experiment: Antifungal activity against Aspergillus fumigatus MTCC 343 assessed as growth inhibition after 48 hr by agar streak dilution method; settings: MTCC 343, 48 h
Aspergillus niger [19] = experiment: Antifungal activity against Aspergillus niger MTCC 282 assessed as growth inhibition after 48 hr by agar streak dilution method; settings: MTCC 282, 48 h
Shigella flexneri [20] = experiment: Antibacterial activity against Shigella flexneri MTCC 1457 assessed as growth inhibition at 3.12 to 50 ug/mL after 24 hr by agar disk diffusion method
Proteus vulgaris [21] = experiment: Antibacterial activity against Proteus vulgaris MTCC 1771 assessed as growth inhibition at 3.12 to 50 ug/mL after 24 hr by agar disk diffusion method
Pseudomonas aeruginosa [22] = experiment: Antibacterial activity against Pseudomonas aeruginosa MTCC 741 assessed as growth inhibition at 3.12 to 50 ug/mL after 24 hr by agar disk diffusion method
Escherichia coli [23] = experiment: Antibacterial activity against Escherichia coli MTCC 739 assessed as growth inhibition at 3.12 to 50 ug/mL after 24 hr by agar disk diffusion method
Bacillus cereus [24] = experiment: Antibacterial activity against Bacillus cereus MTCC 430 assessed as growth inhibition at 3.12 to 50 ug/mL after 24 hr by agar disk diffusion method
Staphylococcus aureus [25] = experiment: Antibacterial activity against Staphylococcus aureus MTCC 96 assessed as growth inhibition at 3.12 to 50 ug/mL after 24 hr by agar disk diffusion method
Shigella flexneri [26] = experiment: Antibacterial activity against Shigella flexneri MTCC 1457 assessed as growth inhibition after 24 hr by agar streak dilution method; settings: MTCC 1457, 24 h
Proteus vulgaris [27] = experiment: Antibacterial activity against Proteus vulgaris MTCC 1771 assessed as growth inhibition after 24 hr by agar streak dilution method; settings: MTCC 1771, 24 h

| Structure (SMILES) | inhibition zone (IZ) (Salmonella typhi [1]) | inhibition zone (IZ) (Klebsiella pneumoniae [2]) | MIC (Klebsiella pneumoniae [3]) | MIC (Salmonella typhi [4]) | MIC (Pseudomonas aeruginosa [5]) | MIC (Escherichia coli [6]) | MIC (Bacillus cereus [7]) | MIC (Staphylococcus aureus [8]) | growth inhibition (GI) [9] | MIC [10] | MIC [11] | inhibition zone (IZ) (Candida albicans [12]) | inhibition zone (IZ) (Aspergillus clavatus [13]) | inhibition zone (IZ) (Aspergillus fumigatus [14]) | inhibition zone (IZ) (Aspergillus niger [15]) | MIC (Candida albicans [16]) | MIC (Aspergillus clavatus [17]) | MIC (Aspergillus fumigatus [18]) | MIC (Aspergillus niger [19]) | inhibition zone (IZ) (Shigella flexneri [20]) | further results |
| --- | --- | --- | --- | --- | --- | --- | --- | --- | --- | --- | --- | --- | --- | --- | --- | --- | --- | --- | --- | --- | --- |
| CC1CC(C)CN(c2nc(-c3ccc(NCC(=O)Nc4ccccc4)cc3)nc(N3CC(C)CC(C)C3)n2)C1 (stereo not drawn) | <10 mm | <10 mm | 50 µg/mL (≈ 94.7 µM) | 50 µg/mL (≈ 94.7 µM) | 50 µg/mL (≈ 94.7 µM) | 50 µg/mL (≈ 94.7 µM) | 50 µg/mL (≈ 94.7 µM) | 50 µg/mL (≈ 94.7 µM) | 95% | 250 µg/mL (≈ 474 µM) | > 6.25 µg/mL | <10 mm | <10 mm | <10 mm | <10 mm | > 50 µg/mL | > 50 µg/mL | 50 µg/mL (≈ 94.7 µM) | 50 µg/mL (≈ 94.7 µM) | <10 mm | inhibition zone (IZ) (Proteus vulgaris [21]): 14 mm; inhibition zone (IZ) (Pseudomonas aeruginosa [22]): 19 mm; inhibition zone (IZ) (Escherichia coli [23]): <10 mm; inhibition zone (IZ) (Bacillus cereus [24]): 12 mm; inhibition zone (IZ) (Staphylococcus aureus [25]): 11 mm; MIC (Shigella flexneri [26]): 50 µg/mL (≈ 94.7 µM); MIC (Proteus vulgaris [27]): 50 µg/mL (≈ 94.7 µM) |
| CC(=O)Nc1ccc2nc(NC(=O)CNc3ccc(-c4nc(N5CC(C)CC(C)C5)nc(N5CC(C)CC(C)C5)n4)cc3)sc2c1 (stereo not drawn) | 17 mm | 21 mm | 50 µg/mL (≈ 77.9 µM) | 50 µg/mL (≈ 77.9 µM) | 50 µg/mL (≈ 77.9 µM) | 50 µg/mL (≈ 77.9 µM) | 50 µg/mL (≈ 77.9 µM) | 50 µg/mL (≈ 77.9 µM) | 98% | 50 µg/mL (≈ 77.9 µM) | > 6.25 µg/mL | 22 mm | 24 mm | <10 mm | 24 mm | 25 µg/mL (≈ 39 µM) | 50 µg/mL (≈ 77.9 µM) | > 50 µg/mL | 6.25 µg/mL (≈ 9.74 µM) | 13 mm | inhibition zone (IZ) (Proteus vulgaris [21]): 26 mm; inhibition zone (IZ) (Pseudomonas aeruginosa [22]): 19 mm; inhibition zone (IZ) (Escherichia coli [23]): 19 mm; inhibition zone (IZ) (Bacillus cereus [24]): 17 mm; inhibition zone (IZ) (Staphylococcus aureus [25]): 19 mm; MIC (Shigella flexneri [26]): 50 µg/mL (≈ 77.9 µM); MIC (Proteus vulgaris [27]): 6.25 µg/mL (≈ 9.74 µM) |
| CC1CC(C)CN(c2nc(-c3ccc(NCC(=O)Nc4ccc(C#N)cc4)cc3)nc(N3CC(C)CC(C)C3)n2)C1 (stereo not drawn) | 20 mm | 28 mm | 12.5 µg/mL (≈ 22.6 µM) | 50 µg/mL (≈ 90.5 µM) | 50 µg/mL (≈ 90.5 µM) | 25 µg/mL (≈ 45.2 µM) | 50 µg/mL (≈ 90.5 µM) | 12.5 µg/mL (≈ 22.6 µM) | 96% | 62.5 µg/mL (≈ 113 µM) | > 6.25 µg/mL | <10 mm | <10 mm | 11 mm | <10 mm | > 50 µg/mL | > 50 µg/mL | 50 µg/mL (≈ 90.5 µM) | 50 µg/mL (≈ 90.5 µM) | 15 mm | inhibition zone (IZ) (Proteus vulgaris [21]): 19 mm; inhibition zone (IZ) (Pseudomonas aeruginosa [22]): 21 mm; inhibition zone (IZ) (Escherichia coli [23]): 20 mm; inhibition zone (IZ) (Bacillus cereus [24]): 19 mm; inhibition zone (IZ) (Staphylococcus aureus [25]): 19 mm; MIC (Shigella flexneri [26]): 50 µg/mL (≈ 90.5 µM); MIC (Proteus vulgaris [27]): 50 µg/mL (≈ 90.5 µM) |
| Cc1ccc(NC(=O)CNc2ccc(-c3nc(N4CC(C)CC(C)C4)nc(N4CC(C)CC(C)C4)n3)cc2)cc1 (stereo not drawn) | 18 mm | <10 mm | 50 µg/mL (≈ 92.3 µM) | 50 µg/mL (≈ 92.3 µM) | 50 µg/mL (≈ 92.3 µM) | 50 µg/mL (≈ 92.3 µM) | 50 µg/mL (≈ 92.3 µM) | 50 µg/mL (≈ 92.3 µM) | 95% | 250 µg/mL (≈ 461 µM) | > 6.25 µg/mL | 11 mm | <10 mm | <10 mm | <10 mm | 50 µg/mL (≈ 92.3 µM) | > 50 µg/mL | > 50 µg/mL | 50 µg/mL (≈ 92.3 µM) | 11 mm | inhibition zone (IZ) (Proteus vulgaris [21]): 16 mm; inhibition zone (IZ) (Pseudomonas aeruginosa [22]): 17 mm; inhibition zone (IZ) (Escherichia coli [23]): 13 mm; inhibition zone (IZ) (Bacillus cereus [24]): 14 mm; inhibition zone (IZ) (Staphylococcus aureus [25]): <10 mm; MIC (Shigella flexneri [26]): 50 µg/mL (≈ 92.3 µM); MIC (Proteus vulgaris [27]): 50 µg/mL (≈ 92.3 µM) |
